Measurements reported in PubChem BioAssay AID1918930 (Molecular Pharmacology Branch, DTP, NCI, 2023).
The source made the active and inactive calls. The calls were made as follows: active = viability on the fitted dose curve at most 10% of control; inactive = the rest.

System: 233499-124-R-J3-PDC complex spheroid viability, % test/control
Experiment: Anticancer human tumor 233499-124-R-J3-PDC patient-derived colon adenocarcinoma cell line growth inhibition
Details: for IC50: curve of first compound; for viability, T/C: stronger effect = lower value
In short: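 Multicellular complex spheroids of tumor cells with human endothelial cells (HUVEC) and mesenchymal stem cells; the LSD1 inhibitor iadademstat was combined with standard-of-care or investigational agents. Top concentration at or near clinical Cmax, half-log dilutions; final DMSO ≤0.25%.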

[1] = second compound 0.1 µM, first compound 0.0316 µM
[2] = second compound 0.1 µM, first compound 0.1 µM
[3] = second compound 0.1 µM, first compound 0.316 µM
[4] = second compound 0.1 µM, first compound 1 µM
[5] = second compound 0.1 µM, first compound 3.16 µM
[6] = second compound 0.1 µM, first compound 10 µM
[7] = second compound 0.316 µM, first compound 0.0316 µM
[8] = second compound 0.316 µM, first compound 0.1 µM
[9] = second compound 0.316 µM, first compound 0.316 µM
[10] = second compound 0.316 µM, first compound 1 µM
[11] = second compound 0.316 µM, first compound 3.16 µM
[12] = second compound 0.316 µM, first compound 10 µM
[13] = second compound 1 µM, first compound 0.0316 µM
[14] = second compound 1 µM, first compound 0.1 µM
[15] = second compound 1 µM, first compound 0.316 µM
[16] = second compound 1 µM, first compound 1 µM
[17] = second compound 1 µM, first compound 3.16 µM
[18] = second compound 1 µM, first compound 10 µM
[19] = second compound 3.16 µM, first compound 0.0316 µM
[20] = second compound 3.16 µM, first compound 0.1 µM
[21] = second compound 3.16 µM, first compound 0.316 µM
[22] = second compound 3.16 µM, first compound 1 µM
[23] = second compound 3.16 µM, first compound 3.16 µM
[24] = second compound 3.16 µM, first compound 10 µM
[25] = second compound 10 µM, first compound 0.0316 µM
[26] = second compound 10 µM, first compound 0.1 µM
[27] = second compound 10 µM, first compound 0.316 µM
[28] = second compound 10 µM, first compound 1 µM
[29] = second compound 10 µM, first compound 3.16 µM
[30] = second compound 10 µM, first compound 10 µM
[31] = second compound 0.1 µM, first compound 0.00949 µM
[32] = second compound 0.1 µM, first compound 0.03 µM
[33] = second compound 0.1 µM, first compound 0.0949 µM
[34] = second compound 0.1 µM, first compound 0.3 µM
[35] = second compound 0.316 µM, first compound 0.00949 µM
[36] = second compound 0.316 µM, first compound 0.03 µM
[37] = second compound 0.316 µM, first compound 0.0949 µM
[38] = second compound 0.316 µM, first compound 0.3 µM
[39] = second compound 1 µM, first compound 0.00949 µM
[40] = second compound 1 µM, first compound 0.03 µM
[41] = second compound 1 µM, first compound 0.0949 µM
[42] = second compound 1 µM, first compound 0.3 µM
[43] = second compound 3.16 µM, first compound 0.00949 µM
[44] = second compound 3.16 µM, first compound 0.03 µM
[45] = second compound 3.16 µM, first compound 0.0949 µM
[46] = second compound 3.16 µM, first compound 0.3 µM
[47] = second compound 10 µM, first compound 0.00949 µM
[48] = second compound 10 µM, first compound 0.03 µM
[49] = second compound 10 µM, first compound 0.0949 µM
[50] = second compound 10 µM, first compound 0.3 µM
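For IC50 in this document: spheroids exposed to agents for one week before readout.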
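For viability, T/C in this document: spheroids exposed to agents for one week before readout.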

CC1(C)CCC(CN2CCN(c3ccc(C(=O)NS(=O)(=O)c4ccc(NCC5CCOCC5)c([N+](=O)[O-])c4)c(Oc4cnc5[nH]ccc5c4)c3)CC2)=C(c2ccc(Cl)cc2)C1 + NC1CCC(NC2CC2c2ccccc2)CC1
IC50 (second compound 0.1 µM): 7560 nM | IC50 (second compound 0.316 µM): 6460 nM | IC50 (second compound 1 µM): 9010 nM | IC50 (second compound 3.16 µM): 7550 nM | IC50 (second compound 10 µM): 7290 nM | viability, T/C [1]: 119% | viability, T/C [2]: 127% | viability, T/C [3]: 132% | viability, T/C [4]: 116% | viability, T/C [5]: 143% | viability, T/C [6]: 25.2% | viability, T/C [7]: 111% | viability, T/C [8]: 109% | viability, T/C [9]: 114% | viability, T/C [10]: 105% | viability, T/C [11]: 132% | viability, T/C [12]: 10.5% | viability, T/C [13]: 95.7% | viability, T/C [14]: 91.2% | viability, T/C [15]: 97.8% | viability, T/C [16]: 104% | viability, T/C [17]: 118% | viability, T/C [18]: 44.8% | viability, T/C [19]: 88.8% | viability, T/C [20]: 99.8% | viability, T/C [21]: 83% | viability, T/C [22]: 98.9% | viability, T/C [23]: 96.6% | viability, T/C [24]: 36% | viability, T/C [25]: 87.4% | viability, T/C [26]: 86.5% | viability, T/C [27]: 85.2% | viability, T/C [28]: 93.1% | viability, T/C [29]: 101% | viability, T/C [30]: 34.5%

CC1COCCN1c1cc(C2(S(C)(=N)=O)CC2)nc(-c2ccnc3[nH]ccc23)n1 (stereo not given) + NC1CCC(NC2CC2c2ccccc2)CC1
IC50 (second compound 0.1 µM): > 10000 nM | IC50 (second compound 0.316 µM): > 10000 nM | IC50 (second compound 1 µM): > 10000 nM | IC50 (second compound 3.16 µM): > 10000 nM | IC50 (second compound 10 µM): 1390 nM | viability, T/C [1]: 105% | viability, T/C [2]: 91.5% | viability, T/C [3]: 87.8% | viability, T/C [4]: 82.8% | viability, T/C [5]: 62.6% | viability, T/C [6]: 59.9% | viability, T/C [7]: 102% | viability, T/C [8]: 98.8% | viability, T/C [9]: 95.8% | viability, T/C [10]: 100% | viability, T/C [11]: 90% | viability, T/C [12]: 58.1% | viability, T/C [13]: 98.8% | viability, T/C [14]: 78.5% | viability, T/C [15]: 84.3% | viability, T/C [16]: 66.3% | viability, T/C [17]: 63.4% | viability, T/C [18]: 65% | viability, T/C [19]: 79.5% | viability, T/C [20]: 92.4% | viability, T/C [21]: 80% | viability, T/C [22]: 67.8% | viability, T/C [23]: 61.7% | viability, T/C [24]: 51.6% | viability, T/C [25]: 81.4% | viability, T/C [26]: 71.3% | viability, T/C [27]: 80.9% | viability, T/C [28]: 52.5% | viability, T/C [29]: 43.9% | viability, T/C [30]: 43.3%

CCN(c1cc(-c2ccc(CN3CCOCC3)cc2)cc(C(=O)NCc2c(C)cc(C)[nH]c2=O)c1C)C1CCOCC1 + NC1CCC(NC2CC2c2ccccc2)CC1
IC50 (second compound 0.1 µM): > 3000 nM | IC50 (second compound 0.316 µM): > 3000 nM | IC50 (second compound 1 µM): > 3000 nM | IC50 (second compound 3.16 µM): > 3000 nM | IC50 (second compound 10 µM): > 3000 nM | viability, T/C [31]: 99.9% | viability, T/C [32]: 117% | outcome [33]: inactive | viability, T/C [34]: 121% | viability, T/C (second compound 0.1 µM, first compound 0.949 µM): 101% | viability, T/C (second compound 0.1 µM, first compound 3 µM): 126% | viability, T/C [35]: 101% | viability, T/C [36]: 110% | viability, T/C [37]: 113% | viability, T/C [38]: 102% | viability, T/C (second compound 0.316 µM, first compound 0.949 µM): 118% | viability, T/C (second compound 0.316 µM, first compound 3 µM): 135% | viability, T/C [39]: 80.9% | viability, T/C [40]: 77.9% | viability, T/C [41]: 80.4% | viability, T/C [42]: 96.2% | viability, T/C (second compound 1 µM, first compound 0.949 µM): 88.5% | viability, T/C (second compound 1 µM, first compound 3 µM): 122% | viability, T/C [43]: 75.5% | viability, T/C [44]: 95.2% | viability, T/C [45]: 85.8% | viability, T/C [46]: 87.4% | viability, T/C (second compound 3.16 µM, first compound 0.949 µM): 76.2% | viability, T/C (second compound 3.16 µM, first compound 3 µM): 104% | viability, T/C [47]: 86% | viability, T/C [48]: 68% | viability, T/C [49]: 69.4% | viability, T/C [50]: 74.9% | viability, T/C (second compound 10 µM, first compound 0.949 µM): 83.5% | viability, T/C (second compound 10 µM, first compound 3 µM): 90.2%

Nc1ncn(C2CC(O)C(CO)S2)c(=O)n1 (stereo not given) + NC1CCC(NC2CC2c2ccccc2)CC1
IC50 (second compound 0.1 µM): 123 nM | IC50 (second compound 0.316 µM): 76.1 nM | IC50 (second compound 1 µM): 56.9 nM | IC50 (second compound 3.16 µM): 73.9 nM | IC50 (second compound 10 µM): 63.2 nM | viability, T/C (second compound 0.1 µM, first compound 0.000949 µM): 110% | viability, T/C (second compound 0.1 µM, first compound 0.003 µM): 85.6% | viability, T/C [31]: 113% | viability, T/C [32]: 88.1% | viability, T/C [33]: 61.4% | viability, T/C [34]: 13.1% | viability, T/C (second compound 0.316 µM, first compound 0.000949 µM): 113% | viability, T/C (second compound 0.316 µM, first compound 0.003 µM): 107% | viability, T/C [35]: 117% | viability, T/C [36]: 93.9% | viability, T/C [37]: 39.7% | viability, T/C [38]: 11.6% | viability, T/C (second compound 1 µM, first compound 0.000949 µM): 94.3% | viability, T/C (second compound 1 µM, first compound 0.003 µM): 88.6% | viability, T/C [39]: 91.2% | viability, T/C [40]: 76.8% | viability, T/C [41]: 28.6% | viability, T/C [42]: 27.4% | viability, T/C (second compound 3.16 µM, first compound 0.000949 µM): 97.4% | viability, T/C (second compound 3.16 µM, first compound 0.003 µM): 99.9% | viability, T/C [43]: 92% | viability, T/C [44]: 89% | viability, T/C [45]: 39.2% | viability, T/C [46]: 24.9% | viability, T/C (second compound 10 µM, first compound 0.000949 µM): 86.6% | viability, T/C (second compound 10 µM, first compound 0.003 µM): 82.4% | viability, T/C [47]: 86.8% | viability, T/C [48]: 82.8% | viability, T/C [49]: 32.1% | viability, T/C [50]: 23.6%

O=C(C=Cn1cnc(-c2cc(C(F)(F)F)cc(C(F)(F)F)c2)n1)NNc1cnccn1 + NC1CCC(NC2CC2c2ccccc2)CC1
IC50 (second compound 0.1 µM): 102 nM | IC50 (second compound 0.316 µM): 144 nM | IC50 (second compound 1 µM): 84.6 nM | IC50 (second compound 3.16 µM): 130 nM | IC50 (second compound 10 µM): 84.6 nM | viability, T/C (second compound 0.1 µM, first compound 0.00316 µM): 106% | viability, T/C (second compound 0.1 µM, first compound 0.01 µM): 102% | viability, T/C [1]: 99.5% | viability, T/C [2]: 49.5% | viability, T/C [3]: 31.1% | viability, T/C [4]: 19.8% | viability, T/C (second compound 0.316 µM, first compound 0.00316 µM): 119% | viability, T/C (second compound 0.316 µM, first compound 0.01 µM): 109% | viability, T/C [7]: 97.4% | viability, T/C [8]: 59.2% | viability, T/C [9]: 28.2% | viability, T/C [10]: 11.7% | viability, T/C (second compound 1 µM, first compound 0.00316 µM): 115% | viability, T/C (second compound 1 µM, first compound 0.01 µM): 106% | viability, T/C [13]: 106% | viability, T/C [14]: 40% | viability, T/C [15]: 30.9% | viability, T/C [16]: 12% | viability, T/C (second compound 3.16 µM, first compound 0.00316 µM): 99.3% | viability, T/C (second compound 3.16 µM, first compound 0.01 µM): 90.8% | viability, T/C [19]: 91.8% | viability, T/C [20]: 54.9% | viability, T/C [21]: 27.8% | viability, T/C [22]: 14.2% | viability, T/C (second compound 10 µM, first compound 0.00316 µM): 96.8% | viability, T/C (second compound 10 µM, first compound 0.01 µM): 97.3% | viability, T/C [25]: 87.3% | viability, T/C [26]: 43.2% | viability, T/C [27]: 22% | viability, T/C [28]: 15.8%
